# Measured values taken from patent publication US11382912B2, “Controlled-release preparation” (NIPPON SHINYAKU CO., LTD., priority 2017, dated 2022).
# System: not listed separately
# Assay: pH of alkaline substance at 0.1 wt % in water
# Type: physicochemical
# Settings: dissolved or dispersed in water at 0.1 wt %
# Protocol: The pH of the alkaline substance was measured according to the following method.
# The alkaline substance was dissolved (or dispersed) in water at 0.1 wt %, and the pH of the solution (or the dispersion) was determined using a pH METER HM-30R (manufactured by DKK-TOA Corporation).
row,Compound,pH
1,O=C([O-])O.[Na+] [Sodium bicarbonate],8.5
2,CC(=O)[O-].[Na+] [Sodium acetate],7.6
3,[Mg+2].[OH-].[OH-] [Magnesium hydroxide],10.3
4,O=C([O-])[O-].[Ca+2] [Calcium carbonate],9.8
5,[Ca+2].[OH-].[OH-] [Calcium hydroxide],12.2
6,CNC[C@H](O)[C@@H](O)[C@H](O)[C@H](O)CO [Meglumine],10.6
7,O=C([O-])[O-].[K+].[K+] [Potassium carbonate],10.9
8,O=C([O-])CC(O)(CC(=O)[O-])C(=O)[O-].[Na+].[Na+].[Na+] [Trisodium citrate],8.3
9,O=C([O-])[O-].[Na+].[Na+] [Dried sodium carbonate],11.0
10,[O]=[Mg] [Magnesium oxide],10.7
11,O=P([O-])([O-])O.[Na+].[Na+] [Sodium hydrogen phosphate],9.2

# System: not given
# Assay: not given
# Settings: known, NPL 1; cited from earlier work
row,Compound,Solubility
1,"CC(C)N(CCCCOCC(=O)NS(C)(=O)=O)c1cnc(-c2ccccc2)c(-c2ccccc2)n1 [Compound A, 2-{4-[N-(5,6-diphenylpyrazin-2-yl)-N-isopropylamino]butyloxy}-N-(methylsulfonyl)acetamide]",depend on pH

# Biological target: PGI2 receptor (Homo sapiens, UniProt P43119)
# Sequence (P43119 whole entry, species assumed): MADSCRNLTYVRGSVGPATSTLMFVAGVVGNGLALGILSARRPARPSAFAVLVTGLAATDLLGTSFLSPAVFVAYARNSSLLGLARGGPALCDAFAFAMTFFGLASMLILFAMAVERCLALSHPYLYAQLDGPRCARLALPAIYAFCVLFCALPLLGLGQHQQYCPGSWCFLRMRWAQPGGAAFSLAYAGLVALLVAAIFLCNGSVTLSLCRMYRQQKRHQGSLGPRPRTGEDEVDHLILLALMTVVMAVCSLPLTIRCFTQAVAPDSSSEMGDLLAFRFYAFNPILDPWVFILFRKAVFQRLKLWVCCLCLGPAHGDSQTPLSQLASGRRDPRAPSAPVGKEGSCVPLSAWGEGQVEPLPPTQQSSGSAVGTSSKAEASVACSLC
# Assay: not given
# Settings: known, PTL 7 to PTL 12; cited from earlier work
row,Compound,PGI2 receptor agonistic effect
1,"CC(C)N(CCCCOCC(=O)NS(C)(=O)=O)c1cnc(-c2ccccc2)c(-c2ccccc2)n1 [Compound A, 2-{4-[N-(5,6-diphenylpyrazin-2-yl)-N-isopropylamino]butyloxy}-N-(methylsulfonyl)acetamide]",excellent
